Laboratory results published in patent publication US20070027175A1, “Antineoplastic activities of ellipticine and its derivatives” (priority 2005, published 2007).

Key:
CAG myeloma cell line = assay: CellTiter-Glo luminescent cell viability assay, CAG; format: cell-based, human; parameters: unit of the concentration uncertain
Method: (§1) The dosage of each derivative was set at 2, 0.2 and 0.02 mM. A cell culture medium control and 0.5% DMSO control was maintained in each experiment. The cell viability was tested each day over a period of five days using the CellTiter-Glo luminescent cell viability assay kit from Promega Co.
Cell Titer-Glo luminescent cell viability assay kit from Promega Co (Madison, Wis.) was used to determine cell growth inhibition by the various compounds tested. The kit determines cell viability by quantifying the amount of ATP present in the cell culture medium. Presence of ATP signals the presence of metabolically active cells (3). The intensity of luminescence was measured by a computerized luminometer (Promega, Co. Madison, Wis.). Each well was read five times within 30 minutes of adding Cell Titer-Glo reagent mixture.
Cells were contacted with the antineoplastic agents in ninety six well culture plates. The concentration of each neoplastic agent was maintained a constant. A cell culture medium control and 0.5% DMSO control were maintained in each set of experiments. The cell viability was tested every day using the CellTiter-Glo luminescent cell viability kit from Promega Co. (Madison, Wis.) for a period of five days.

[1] = tested on: RPMI8226 myeloma cell line; assay: CellTiter-Glo luminescent cell viability assay, RPMI8226; format: cell-based, human; parameters: unit of the concentration uncertain
Method: as §1
Cell Titer-Glo luminescent cell viability assay kit from Promega Co (Madison, Wis.) was used to determine cell growth inhibition by the various compounds tested. The kit determines cell viability by quantifying the amount of ATP present in the cell culture medium. Presence of ATP signals the presence of metabolically active cells (3). The intensity of luminescence was measured by a computerized luminometer (Promega, Co. Madison, Wis.). Each well was read five times within 30 minutes of adding Cell Titer-Glo reagent mixture. […]

RPMI 8226 cells = assay: Drug resistance and cytotoxicity MTT assay, RPMI 8226; format: cell-based, human; conditions: 96 hours
Method: (§2) FIGS. 13A-13B show dose response of RPMI 8226 and 8226/Dox1V myeloma cells to EPED3 (FIG. 13A) or Dox (FIG. 13B). Cells were incubated for 96 hours with drug concentrations as indicated and analyzed by MTT assays; linear regression analysis was used to determine the IC50 for each drug (EPED3, FIG. 13A; Dox, FIG. 13B) and each cell line (RPMI8226, squares; 8226/Dox1V, circles). Data are presented as the mean of four independent experiments.
(§3) The 8226/Dox1V and its parental line, RPMI 8226, cells were plated in 96-well plates at 10,000 cells/well and incubated with serial dilutions of EPED3 or Dox, as previously described (Landowski et al., 1999). After 96 hours incubation at 37° C., MTT was added to each well at a final concentration of 20 μg/ml and incubated an additional 4 hours. Plates were centrifuged and the media replaced with 0.1 ml DMSO to solublize the formazan complex. Optical density was measured at 540 nm using a Bio-Tek microplate spectrophotometer. IC50 values were calculated by linear regression analysis (Origins® Software Technologies, Inc.) of the log-linear plot for percent survival versus log drug concentration.
In drug resistance studies, the efficacy of EPED3 with 8226/Dox1V cells and the parental line, RPMI 8226 cells was investigated. Both cell lines were treated with either EPED3 or Dox, and the MTT assays were used to assess cell growth. […]

8226/Dox1V cells = assay: Drug resistance and cytotoxicity MTT assay, 8226/Dox1V; format: cell-based, human
Method: as §2
The 8226/Dox1V cell line was established by chronic exposure to Dox in presence of P-glycoprotein inhibitor, verapamil and was characterized by reduced expression and activity of topo II (Futscher et al., 1993).
as §3
In drug resistance studies, the efficacy of EPED3 with 8226/Dox1V cells and the parental line, RPMI 8226 cells was investigated. Both cell lines were treated with either EPED3 or Dox, and the MTT assays were used to assess cell growth. Linear regression analysis of 96-hour dose-response curves was used to compare cytotoxicity of EPED3 in 8226/Dox1V and RPMI 8226 cell lines.

[2] = tested on: myeloma cell lines (JJN3, L363, OCI-MY5, and U266); assay: MTT comparison with clinical anti-myeloma agents, four cell lines; format: cell-based, human; conditions: 24 and 48 hours
Method: Myeloma cells were suspended in fresh medium at […] and seeded into 96-well plates in 50-μl aliquots (10,000 cells/well). After treating cells in each well with the appropriate compound (50-μl aliquots of 2× stock solution) and medium control, the methylthiazolyldiphenyl-tetrazolium bromide (MTT) assay kit (Promega, Madison, Wis.) was used to determine cell proliferation, according to manufacturer's instructions. Briefly, dye solution was added to each well (15 μl/well) and incubated for 4 hours at 37° C. and 5% CO2; 100 μl of the solubilization solution/stop mix was then added. The plates were read at 570 nm in a plate reader, and the A570 nm values were corrected by A650 nm. All experiments were conducted in triplicate.
In vitro comparison of EPED3 to ellipticine and four anti-myeloma agents commonly used in clinical treatment regimens was carried out with four myeloma cell lines (JJN3, L363, OCI-MY5, and U266). EPED3, ellipticine, Dox, dexamethasome, VP-16-213, and Velcade were applied in a two-fold dilution series ranging from 0.1 to 6.4 μM. Cell proliferation was assessed using MTT assays 24 and 48 hours after initiating treatments.

NCI-60 cancer panel = conditions: average across the cell lines of the concentration at which growth is inhibited 50%; unit in the High Conc. footnote; cited from earlier work
[3] = NCI in vivo screening data; cited from earlier work

With Cc1c2ccncc2c(C)c2c1[nH]c1ccc(OCCN(C)C)cc12 [NSC 338258, ellipticine, 9-dimethyl amino-ethoxy-] the “cell viability (CellTiter-Glo luminescent assay)” value (CAG myeloma cell line; 0.02 (unit uncertain), Day 1) was 173,140, the “cell viability (CellTiter-Glo luminescent assay)” value (CAG myeloma cell line; 0.02 (unit uncertain), Day 2) was 383,737 and the “cell viability (CellTiter-Glo luminescent assay)” value (CAG myeloma cell line; 0.02 (unit uncertain), Day 3) was 780,458. The “cell viability (CellTiter-Glo luminescent assay)” value (CAG myeloma cell line; 0.02 (unit uncertain), Day 4) was 1,670,491, the “cell viability (CellTiter-Glo luminescent assay)” value (CAG myeloma cell line; 0.02 (unit uncertain), Day 5) was 3,108,577 and the “cell viability (CellTiter-Glo luminescent assay)” value (CAG myeloma cell line; 0.2 (unit uncertain), Day 1) was 103,658. The “cell viability (CellTiter-Glo luminescent assay)” value (CAG myeloma cell line; 0.2 (unit uncertain), Day 2) was 105,998, the “cell viability (CellTiter-Glo luminescent assay)” value (CAG myeloma cell line; 0.2 (unit uncertain), Day 3) was 111,306 and the “cell viability (CellTiter-Glo luminescent assay)” value (CAG myeloma cell line; 0.2 (unit uncertain), Day 4) was 123,316. For the same compound, the “cell viability (CellTiter-Glo luminescent assay)” value (CAG myeloma cell line; 0.2 (unit uncertain), Day 5) was 64,052, the “cell viability (CellTiter-Glo luminescent assay)” value (CAG myeloma cell line; 2 (unit uncertain), Day 1) was 76,441 and the “cell viability (CellTiter-Glo luminescent assay)” value (CAG myeloma cell line; 2 (unit uncertain), Day 2) was 39,273. The “cell viability (CellTiter-Glo luminescent assay)” value (CAG myeloma cell line; 2 (unit uncertain), Day 3) was 23,807, the “cell viability (CellTiter-Glo luminescent assay)” value (CAG myeloma cell line; 2 (unit uncertain), Day 4) was 19,546 and the “cell viability (CellTiter-Glo luminescent assay)” value (CAG myeloma cell line; 2 (unit uncertain), Day 5) was 5,483. The “cell viability (CellTiter-Glo luminescent assay)” value ([1]; 0.02 (unit uncertain), Day 1) was 94,826, the “cell viability (CellTiter-Glo luminescent assay)” value ([1]; 0.02 (unit uncertain), Day 2) was 180,382 and the “cell viability (CellTiter-Glo luminescent assay)” value ([1]; 0.02 (unit uncertain), Day 3) was 302,609. For the same compound, the “cell viability (CellTiter-Glo luminescent assay)” value ([1]; 0.02 (unit uncertain), Day 4) was 516,569, the “cell viability (CellTiter-Glo luminescent assay)” value ([1]; 0.02 (unit uncertain), Day 5) was 777,427 and the “cell viability (CellTiter-Glo luminescent assay)” value ([1]; 0.2 (unit uncertain), Day 1) was 3,790. For the same compound, the “cell viability (CellTiter-Glo luminescent assay)” value ([1]; 0.2 (unit uncertain), Day 2) was 2,320, the “cell viability (CellTiter-Glo luminescent assay)” value ([1]; 0.2 (unit uncertain), Day 3) was 1,254 and the “cell viability (CellTiter-Glo luminescent assay)” value ([1]; 0.2 (unit uncertain), Day 4) was 1,026. For the same compound, the “cell viability (CellTiter-Glo luminescent assay)” value ([1]; 0.2 (unit uncertain), Day 5) was 321, the “cell viability (CellTiter-Glo luminescent assay)” value ([1]; 2 (unit uncertain), Day 1) was 4,685 and the “cell viability (CellTiter-Glo luminescent assay)” value ([1]; 2 (unit uncertain), Day 2) was 923. The “cell viability (CellTiter-Glo luminescent assay)” value ([1]; 2 (unit uncertain), Day 3) was 871, the “cell viability (CellTiter-Glo luminescent assay)” value ([1]; 2 (unit uncertain), Day 4) was 234 and the “cell viability (CellTiter-Glo luminescent assay)” value ([1]; 2 (unit uncertain), Day 5) was 104. The IC50 (RPMI 8226 cells) was 0.15 µM, the IC50 (8226/Dox1V cells; 8226/Dox1V, 96 hours) was 0.131 µM and the “resistance of 8226/Dox1V versus parental RPMI 8226” value (8226/Dox1V cells; ratio of IC50, 96 hours) was “no significant resistance”. The “concentration at which cell viability is inhibited as effectively as Velcade” value [2] was 0.4 µM, the “Mean GI50” value (NCI-60 cancer panel) was −6.57 log^10 molar and the “dosages for animals surviving the toxicity of the compounds” value [3] was 25.0 mg/kg body weight.
